Measurements reported in US20090123518A1, “Biodegradable implants with controlled bulk density” (priority 2007, published 2009).

Assay: Osmotic pressure of the drug in water
Assay type: physicochemical
Conditions: in water at room temperature
Excerpt: As an example of this discovery, the inventors selected leuprolide acetate as a sample compound. The inventors then experimentally determined that the osmotic pressure of leuprolide acetate in water is approximately 5 atmospheres at room temperature.
“Osmotic pressure of the drug” means the pressure that must be applied to a solution to prevent the net flow of solvent molecules (such as water) through a semipermeable membrane from a solution of lower drug concentration to a solution of higher drug concentration. The osmotic pressure of the drug can be experimentally determined with use of a vapor pressure osmometer, such as the Vapro® vapor pressure osmometer.

## CCNC(=O)[C@@H]1CCCN1C(=O)[C@H](CCCNC(=N)N)NC(=O)[C@H](CC(C)C)NC(=O)[C@@H](CC(C)C)NC(=O)[C@H](Cc1ccc(O)cc1)NC(=O)[C@H](CO)NC(=O)[C@H](Cc1c[nH]c2ccccc12)NC(=O)[C@H](Cc1c[nH]cn1)NC(=O)[C@@H]1CCC(=O)N1 [leuprolide acetate]
  osmotic pressure: approximately 5 atmospheres
